Laboratory results published in patent US20050106220A1, “Agent for improving mobility and general health of senior companion animals” (priority 2003, published 2005).

Tests used:
Format in all cases: in vivo
senior dogs [1] = assay: Intravenous SKF 97541 in a senior dog, turning motion; conditions: Shiba Ken B (15 years old), single intravenous dose of from 0.01 to 0.1 mg/kg body weight
Description: SKF 97541 was intravenously administered once to Shiba Ken B (15 years old) at a dose of from 0.01 to 0.1 mg/kg body weight.

sympathetic nerve = assay: RR interval by Holter ECG after oral GABA in Beagle dogs; conditions: 10 month old Beagle dogs
Description: Three 10 month old Beagle dogs were confined in darkness from 19:00 (7pm) until 7:00 (7am). An electrocardiogramr was obtained under free movement using a Holter ECG recorder (wireless installation-type ECG recorder). An electrocardiogram was obtained every 30 minutes for 1 minute. A capsule containing 300 mg/kg body weight of GABA was orally administered to each dog just before the dark period. As a control, an empty capsule was administered.
An RR interval (msec, inverse number of a heart rate) relative to the time that lapsed after administration was measured.

senior dogs [2] = assay: Dog food mixed with GABA fed to senior dogs, observation of age-related conditions; conditions: 2 weeks
Description: Dog food was mixed with GABA (30 mg/kg body weight). Mongrel dog A (17 years old) was fed this mixture once a day in the evening for 2 weeks. […] Dog food was mixed with GABA (30 mg/kg body weight). Mongrel dog B (14 years old) was fed this mixture once a day for 2 weeks. […] Dog food was mixed with GABA (30 mg/kg body weight). Toy poodle A (15 years old) was fed this mixture once a day for 2 weeks. […] Dog food was mixed with GABA (30 mg/kg body weight). Toy poodle B (12 years old) was fed this mixture once a day for 2 weeks. […] Dog food was mixed with GABA (30 mg/kg body weight). Pomeranian A (14 years old) was fed this mixture once a day for 2 weeks. […] Dog food was mixed with GABA (30 mg/kg body weight). Shiba Ken (Japanese breed) A (16 years old) was fed with this mixture once a day for 2 weeks.

[3] = Mongrel dog B (14 years old), 30 mg/kg body weight in dog food once a day
[4] = Pomeranian A (14 years old), 30 mg/kg body weight in dog food once a day
[5] = Shiba Ken A (16 years old), 30 mg/kg body weight in dog food once a day
[6] = Toy poodle A (15 years old), 30 mg/kg body weight in dog food once a day
[7] = Toy poodle B (12 years old), 30 mg/kg body weight in dog food once a day

Row | SMILES | turning motion (senior dogs [1]) | stimulus of the sympathetic nerve (sympathetic nerve; GABA 300 mg/kg body weight oral capsule) | average RR interval (inverse number of a heart rate) (sympathetic nerve; GABA 300 mg/kg body weight oral capsule before dark period, approximately 2 to 9 hours after administration, vs empty capsule) | forced and labored breathing (senior dogs [2]; Mongrel dog A (17 years old), 30 mg/kg body weight in dog food once a day in the evening) | drinking behaviour (senior dogs [2]; [3]) | leg trembling (senior dogs [2]; [3]) | mobility and general health (senior dogs [2]; [3]) | continuous sleeping all day long (senior dogs [2]; [4]) | desire to go for a walk (senior dogs [2]; [4]) | general health and activity level (senior dogs [2]; [4]) | ability to move around (senior dogs [2]; [5]) | mobility (senior dogs [2]; [5]) | behaviour towards owner (senior dogs [2]; [6]) | difficult breathing (senior dogs [2]; [6]) | sense of hearing and sense of smell, mobility and general health (senior dogs [2]; [6]) | mobility (senior dogs [2]; [7]) | walking (tottering steps before administration) (senior dogs [2]; [7])
1 | CP(=O)(O)CCCN [SKF 97541, 3-aminopropyl(methyl)phosphinic acid] | eliminated at any dose | – | – | – | – | – | – | – | – | – | – | – | – | – | – | – | –
2 | NCCCC(=O)O [GABA, γ-aminobutyric acid] | – | stimulus of the sympathetic nerve was observed | shortened | disappeared | drank water on its own | disappeared | improvement in mobility and general health was observed | decreased | clearly showed signs that he wanted to go for a walk | improvement in general health and activity level was observed | able to move around easier and clearly with less pain | improvement in mobility was observed | sought out his owner and wanted to stay by him | decreased | improvement | improvement in mobility was observed | walked firmly with steady steps
